# Values quoted from earlier work, collected in patent US11147800B2 (Race Oncology Ltd., priority 2013, dated 2021).
# Structures can show the parent of a compound that is named as a salt.
# Legend:
# [1] = tested on: telomerase-expressing cells and ALT-positive cell lines
# [2] = tested on: colon 26, Lewis lung, Ridgway osteosarcoma, B16, Lieberman plasma cell, P388 or L1210 cancer cells
# [3] = preclinical
# [4] = tested on: L1210 leukemia cells; settings: typical of inhibition of DNA topoisomerase II
# [5] = tested on: hepatic microsomal enzymes; settings: in vitro
# [6] = not given; remark: listed apart in the source
# [7] = tested on: Human Platelets
# [8] = tested on: macrophages
# [9] = tested on: Human tumor cells
# [10] = not given; remark: listed apart in the source
# [11] = not given; remark: listed apart in the source
# [12] = not given; remark: listed apart in the source
# [13] = molecular target: glycogen synthase kinase-3β (GSK-3β) (Homo sapiens, UniProt P49841)
# [14] = local injection
# [15] = single dose study, the last study
# [16] = single dose study, triphasic elimination, second study
# Chain of glycogen synthase kinase-3β (GSK-3β) (P49841 whole entry, species assumed): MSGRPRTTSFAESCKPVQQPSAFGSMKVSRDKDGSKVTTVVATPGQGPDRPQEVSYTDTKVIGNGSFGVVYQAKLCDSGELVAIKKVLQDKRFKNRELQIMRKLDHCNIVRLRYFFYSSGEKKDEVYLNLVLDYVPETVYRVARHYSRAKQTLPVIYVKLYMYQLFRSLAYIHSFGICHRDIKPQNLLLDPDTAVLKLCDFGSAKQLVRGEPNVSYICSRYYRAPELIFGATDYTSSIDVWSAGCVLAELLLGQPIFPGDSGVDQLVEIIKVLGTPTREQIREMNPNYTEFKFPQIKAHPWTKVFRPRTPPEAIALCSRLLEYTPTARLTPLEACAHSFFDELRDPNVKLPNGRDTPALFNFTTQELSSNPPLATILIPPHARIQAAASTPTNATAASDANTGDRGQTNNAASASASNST
compound,measurement,setting,value
C(=N\NC1=NCCN1)/c1cccc2cc3c(/C=N/NC4=NCCN4)cccc3cc12 [Formula (III)],DNA damage response (γH2AX foci partially co-localized at the telomere),[1],consistently provokes a DNA damage response
"C(=NNC1=NCCN1)c1c2ccccc2c(C=NNC2=NCCN2)c2ccccc12 [bisantrene, 9,10-anthracenedicarboxaldehyde bis[(4,5-dihydro-1H-imidazol-2-yl)hydrazine] dihydrochloride]",antitumor activity in murine tumor models,[2]; P-388 leukemia and B-16 melanoma,antitumor activity
same,"activity in cancer models, parenteral","[2]; i.v., i.p. or s.c., colon 26, Lewis lung, Ridgway osteosarcoma, B16, Lieberman plasma cell, P388 or L1210",effective
same,"activity in cancer models, oral",[2]; orally,inactive
same,Brain levels,[3],extremely low
same,tissues with the highest concentration (in descending order),[3],"kidney, liver, gallbladder, spleen, lung, and heart"
same,DNA strand breaks,[4],induce protein-associated DNA strand breaks
same,substrate for hepatic microsomal enzymes,[5],substrate
same,cardiotoxicity in animals,animals,not cardiotoxic
same,toxic findings,"dogs and monkeys, high doses","leukopenia, anorexia, diarrhea, injection site necrosis, enterocolitis, muscle degeneration, and pulmonary edema"
same,urinary excretion of the dose,"[6]; 72-hr infusion study, in 24 hr",4.6%
same,"triphasic elimination, first phase (given as clearances)",[6]; [15],0.1 h
same,"triphasic elimination, second phase (given as clearances)",[6]; [15],1.9 h
same,"triphasic elimination, third phase (given as clearances)",[6]; [15],43.9 h
same,t½α,[6]; [16],3 min
same,t½β,[6]; [16],1 h
same,t½γ,[6]; [16],8 h
same,platelet aggregation,[7],inhibit platelet aggregation
same,minimal effective in vivo dose for macrophage activation,[8],25 mg/kg
same,cross resistance with adriamycin and mitoxantrone,[9],lack of cross resistance
same,sensitivity in in vitro colony-forming assays,"[9]; breast, ovarian, renal, small cell and non-small cell lung, lymphoma, AML, melanoma, gastric, adrenal, head and neck cancer",sensitive
same,local tissue toxicity if extravasated,"[10]; human, in vivo",potent vesicant
same,patients reporting malaise,"[10]; human, in vivo",up to one-half of patients
same,cardiotoxicity compared with mitoxantrone or doxorubicin,[10]; phase III trial,less cardiotoxic
same,activity in metastatic breast cancer,"[11]; Phase II, heavily pretreated patients",active
same,activity in phase I clinical trials,"[11]; hepatocellular cancer and hypernephroma (one patient each), lymphoma, myeloma, melanoma, renal cancer, bladder and lung tumors",showed activity
same,activity in refractory malignant melanoma,[11]; phase II,inactive
same,activity in human colon cancer,[11]; tested in vitro or in vivo (phase II advanced colorectal cancer),inactive
same,major dose-limiting toxic effect,[12]; in vivo,leukopenia
same,DLT,[12]; phase I doses between 190-430 mg/m^2 q3w,neutropenia
CN1C(=O)/C(=C2/C(=O)Nc3ccccc32)c2ccccc21 [meisoindigo],concentration for inhibition of GSK-3β,[13],5 to 50 nM
O=C([O-])O.[Na+] [sodium bicarbonate],bisantrene extravasation necrosis,[14],blocked
